One experiment deals with SMMC-7721 cells. Description: MTT cytotoxic assay, SMMC-7721. In kind it is cell-based. To be noted: Homo sapiens, 72 h. How it is done:
(§1) Human breast cancer cell line (MDA-MB-231), cervical carcinoma cell line (HeLa), the liver cancer cell line (SMMC-7721) and normal hepatocyte cell line (QSG-7701) were maintained in Dulbecco Modified Eagle Medium (DMEM) containing 4.0 mM L-Glutamine and 4500 mg/L Glucose supplemented with 10% (v/v) foetal bovine serum (FBS) and 100 U/mL penicillin/streptomycin at 37 °C in humidified atmosphere of 5% CO2 and 95% air.
(§2) Exponentially growing MDA-MB-231, Hela and SMMC-7721 cell lines were seeded into 96-well plate for 100 μL and treated with different concentrations of the synthetic compounds for 72 h, and then 10 μL of MTT (10 mg/mL) was added and incubation for 3 ∼ 4 h at 37 °C. The generated purple formazan crystals from viable can be dissolved by adding 100 μL DMSO. The plates were swirled gently for 5 min and quantified by measuring the OD of the plates at the wavelength of 540 nm. Each concentration was repeated in three wells and the same experimental condition was provided for all compounds. The results were expressed as IC50 values with standard deviations, which was defined as the concentration at which 50% survival of cells was discerned. Etoposide was co-assayed as positive control.
(§3) The in vitro cytotoxic activity of derivatives 3a–d, 4a–h, 5a–h, and 6a–h were evaluated by MTT assay against human breast cancer cell line (MDA-MB-231), cervical carcinoma cell line (HeLa), hepatocarcinoma cell line (SMMC-7721) and human normal hepatocyte cell line (QSG-7701). The anticancer drug etoposide was co-assayed as the positive control. All tested compounds were dissolved in DMSO and the stock solutions were diluted by DMEM medium before treatment of the cultured cells.
(Tetrazolium assays rely on reduction of a dye to a coloured formazan, in cell work by metabolically active cells.)

The next experiment relates to HeLa cells. As to the kind of experiment: MTT cytotoxic assay, HeLa. In kind it is cell-based. The conditions noted are these: Homo sapiens, 72 h. The procedure:
as §1, §2, §3

The target in another experiment is T1, MEK1 (Homo sapiens, UniProt Q02750).
T1 construct: purchased Carna Biosciences, Kobe, Japan
Description: In vitro MEK1 kinase assay (ADP-Glo). To be noted: recombinant GST-MEK1, GST-ERK2 (inactive) substrate, 10 μM ATP. In kind it is biochemical. How it is done:
An in vitro kinase assay of MEK1 was performed using ADP-Glo kinase assay (Promega, Madison, WI, USA) according to the manufacturer’s protocol. […] Reactions were stopped by adding 5 μL of ADP-Glo reagent to each well. After incubating at 22 °C for 40 min, 10 μL of the kinase detection reagent was added and the plates were incubated for another 30 min at 22 °C in the dark. The reaction mixture was analysed by EnSpire (PerkinElmer, Waltham, MA, USA).
The Raf/MEK/ERK pathway is the downstream of Ras activation, and the abnormal expression or phosphorylation of the associated proteins is essential for cancer cell proliferation. In this pathway, MEK kinase is an important anticancer target because of its key roles in regulating the cancer cell apoptosis and oncogenic transformation[51]^,[52]. Among MEK proteins, MEK1 and MEK2 are known as substrate-specific kinases which phosphorylate their downstream kinase ERK1/2.
(In ADP-Glo the light output rises with the ADP produced.)

The next experiment deals with MDA-MB-231 cells. As to the kind of experiment: MTT cytotoxic assay, MDA-MB-231. Format: cell-based, human. The procedure:
as §1, §2, §3

A further experiment has as its system QSG-7701 cells. As to the kind of experiment: MTT cytotoxic assay, normal hepatocyte QSG-7701. In kind it is cell-based, human. To be noted: for IC50: Homo sapiens, QSG7701, MTT, normal hepatocyte cell line; for Selectivity: IC50 (QSG-7701)/IC50 (HeLa). The procedure: as §1, §2, §3

Bounds are passed on as bounds.

In general, IC50 refers to the concentration at which inhibition is half-maximal.

T1 sequence (Q02750 whole entry): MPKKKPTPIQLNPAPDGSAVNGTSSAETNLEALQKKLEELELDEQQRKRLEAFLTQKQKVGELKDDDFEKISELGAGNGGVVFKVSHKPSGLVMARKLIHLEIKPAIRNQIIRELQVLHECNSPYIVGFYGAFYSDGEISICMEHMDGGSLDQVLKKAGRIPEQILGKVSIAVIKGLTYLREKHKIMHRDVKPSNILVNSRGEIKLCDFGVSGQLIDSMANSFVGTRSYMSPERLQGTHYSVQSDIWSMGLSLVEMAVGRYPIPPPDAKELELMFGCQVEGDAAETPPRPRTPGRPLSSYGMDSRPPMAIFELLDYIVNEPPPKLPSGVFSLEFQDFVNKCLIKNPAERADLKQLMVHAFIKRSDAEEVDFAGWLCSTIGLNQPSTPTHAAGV

With `CC(=O)NNC(=O)[C@]12CC[C@@H](C)[C@H](C)C1C1=CCC3[C@@]4(C)Cc5cc6ccccc6nc5C(C)(C)C4CC[C@@]3(C)[C@]1(C)CC2` (stereo partly drawn) [Compound 4a, N-[ursa-12-en-(2,3)-quinoline-28-oyl]-acetohydrazide], the IC50 in the experiment with SMMC-7721 cells was determined as 17.48 ± 0.1 µM; with HeLa cells, 1.18 ± 0.03 µM; at MEK1, 37.3 µM; in the experiment with MDA-MB-231 cells (Homo sapiens, MDA-MB-231, 72 h), 1.84 ± 0.13 µM; in the experiment with QSG-7701 cells, 40.6 ± 2.89 µM. In the experiment on QSG-7701 cells, this compound returned a Selectivity of 34.4.
`Cc1nnc([C@]23CC[C@@H](C)[C@H](C)C2C2=CCC4[C@@]5(C)Cc6cc7ccccc7nc6C(C)(C)C5CC[C@@]4(C)[C@]2(C)CC3)o1` (stereo partly drawn) [Compound 5a, N-2-[ursa-12-en-(2,3)-quinoline-28-oyl]-5-methyl-1,3,4-oxadiazole]: the IC50 with SMMC-7721 cells was greater than 50 µM; with HeLa cells it was 19.4 ± 0.7 µM; on MEK1, greater than 50 µM; in the experiment with MDA-MB-231 cells (72 h), 5.32 ± 0.13 µM; in the experiment with MDA-MB-231 cells (Homo sapiens, MDA-MB-231, 72 h), less than 10 µM; in the experiment with QSG-7701 cells it was greater than 50 µM. The compound also displayed a Selectivity in the experiment on QSG-7701 cells of 4.3.
As to `C[C@@H]1CC[C@]2(C(=O)O)CC[C@]3(C)C(=CCC4[C@@]5(C)Cc6cc7cc(Cl)ccc7nc6C(C)(C)C5CC[C@]43C)C2[C@H]1C` (stereo partly drawn) [Compound 3d], the IC50 with SMMC-7721 cells is 14.62 ± 0.05 µM; in the experiment on HeLa cells, 1.22 ± 0.08 µM; at MEK1, 0.82 µM; in the experiment with MDA-MB-231 cells (Homo sapiens, MDA-MB-231, 72 h) it was 1.36 ± 0.03 µM; in the experiment on QSG-7701 cells, greater than 50 µM. The Selectivity in the experiment on QSG-7701 cells is 59.5.
With `COc1ccc2nc3c(cc2c1)CC1(C)C(CCC2(C)C1CC=C1C4C(C)C(C)CCC4(C(=O)NNC(C)=O)CCC12C)C3(C)C` (stereo not drawn) [Compound 4b, N-[5′-methoxy-ursa-12-en-(2,3)-quinoline-28-oyl]-acetohydrazide], the half-inhibitory concentration (IC50) in the experiment with SMMC-7721 cells amounted to 17.65 ± 0.11 µM; with HeLa cells it was 0.83 ± 0.09 µM; on MEK1 it was 10.9 µM; in the experiment on MDA-MB-231 cells (Homo sapiens, MDA-MB-231, 72 h), 1.42 ± 0.14 µM; with QSG-7701 cells it was 45.2 ± 2.82 µM. Further, the Selectivity in the experiment with QSG-7701 cells was 54.5.
For `COc1ccc2nc3c(cc2c1)CC1(C)C(CCC2(C)C1CC=C1C4C(C)C(C)CCC4(C(=O)O)CCC12C)C3(C)C` (stereo not drawn) [Compound 3b], the IC50 in the experiment with SMMC-7721 cells is 12.49 ± 0.08 µM; in the experiment with HeLa cells it was 0.36 ± 0.05 µM; on MEK1, 3.59 µM; in the experiment on MDA-MB-231 cells (Homo sapiens, MDA-MB-231, 72 h) it was 0.61 ± 0.07 µM; in the experiment with QSG-7701 cells it was greater than 50 µM. In the experiment with QSG-7701 cells, this compound yielded a Selectivity of 142.3.
As to `C[C@@H]1CC[C@]2(C(=O)O)CC[C@]3(C)C(=CCC4[C@@]5(C)Cc6cc7ccccc7nc6C(C)(C)C5CC[C@]43C)C2[C@H]1C` (stereo partly drawn) [Compound 3a], the concentration for half-maximal inhibition (IC50) with SMMC-7721 cells was 13.4 ± 0.08 µM; in the experiment with HeLa cells, 0.37 ± 0.04 µM; at MEK1, 18.6 µM; in the experiment with MDA-MB-231 cells (Homo sapiens, MDA-MB-231, 72 h), 0.75 ± 0.05 µM; in the experiment with QSG-7701 cells it was greater than 50 µM.
In the case of `CC(=O)NNC(=O)[C@]12CC[C@@H](C)[C@H](C)C1C1=CCC3[C@@]4(C)Cc5cc6cc(F)ccc6nc5C(C)(C)C4CC[C@@]3(C)[C@]1(C)CC2` (stereo partly drawn) [Compound 4c, N-[5′-fluoro-ursa-12-en-(2,3)-quinoline-28-oyl]-acetohydrazide], the half-inhibitory concentration (IC50) with SMMC-7721 cells is 19.41 ± 0.12 µM; with HeLa cells, 0.99 ± 0.05 µM; on MEK1, 0.072 µM; in the experiment on MDA-MB-231 cells (Homo sapiens, MDA-MB-231, 72 h), 1.16 ± 0.06 µM; in the experiment with QSG-7701 cells it was greater than 50 µM. The Selectivity in the experiment on QSG-7701 cells came to 63.8.
For the compound `C[C@@H]1CC[C@]2(C(=O)O)CC[C@]3(C)C(=CCC4[C@@]5(C)Cc6cc7cc(F)ccc7nc6C(C)(C)C5CC[C@]43C)C2[C@H]1C` (stereo partly drawn) [Compound 3c], the IC50 with SMMC-7721 cells is 13.34 ± 0.13 µM; with HeLa cells it was 1.87 ± 0.03 µM; at MEK1 it was 0.37 µM; with MDA-MB-231 cells (Homo sapiens, MDA-MB-231, 72 h) it was 0.9 ± 0.1 µM; with QSG-7701 cells it was greater than 50 µM. Moreover, the Selectivity in the experiment on QSG-7701 cells came out at 37.0.
As for `Cc1nnc([C@]23CC[C@@H](C)[C@H](C)C2C2=CCC4[C@@]5(C)Cc6cc7cc(Cl)ccc7nc6C(C)(C)C5CC[C@@]4(C)[C@]2(C)CC3)s1` (stereo partly drawn) [Compound 6d], the IC50 was greater than 50 µM in the experiment with SMMC-7721 cells; 10.9 ± 1.07 µM in the experiment with HeLa cells; greater than 50 µM on MEK1; 15.8 ± 1.32 µM in the experiment on MDA-MB-231 cells (Homo sapiens, MDA-MB-231, 72 h); greater than 50 µM with QSG-7701 cells. This compound gave a Selectivity in the experiment with QSG-7701 cells of 5.7.

Source of the values: PMC6522941, “Design, synthesis, and anticancer evaluation of novel quinoline derivatives of ursolic acid with hydrazide, oxadiazole, and thiadiazole moieties as potent MEK inhibitors” (Journal of Enzyme Inhibition and Medicinal Chemistry, 2019).
